# Source: PubChem BioAssay AID1259407 (Chemical Carcinogenesis Research Information System (CCRIS), 2018)
# Calls of active or inactive are those of the source. No rule for the calls is given here.
# Tested on: CCRIS mutagenicity, Ames/micronucleus/aberration tests
# Assay: CCRIS mutagenicity studies
# [1] = Test System: AMES SALMONELLA TYPHIMURIUM, Strain/Indicator: TA100, Metabolic Activation: NONE, Method: PREINCUBATION
# [2] = Test System: AMES SALMONELLA TYPHIMURIUM, Strain/Indicator: TA1535, Metabolic Activation: NONE, Method: PREINCUBATION
# [3] = Test System: AMES SALMONELLA TYPHIMURIUM, Strain/Indicator: TA1537, Metabolic Activation: NONE, Method: PREINCUBATION
# [4] = Test System: E. COLI, Strain/Indicator: WP2 UVRA, Metabolic Activation: NONE, Method: PREINCUBATION
# [5] = Test System: MOUSE LYMPHOMA, Strain/Indicator: L5178Y (TK+/TK-), Metabolic Activation: NONE, Method: SUSPENSION/PLATE
# [6] = Test System: AMES SALMONELLA TYPHIMURIUM, Strain/Indicator: TA98, Metabolic Activation: NONE, Method: PREINCUBATION
# [7] = Test System: AMES SALMONELLA TYPHIMURIUM, Strain/Indicator: TA98, Metabolic Activation: NONE
# [8] = Test System: AMES SALMONELLA TYPHIMURIUM, Strain/Indicator: TA98, Metabolic Activation: S-9
compound,measurement,setting,value
COc1c(Cl)c(Cl)c(Cl)c(Cl)c1Cl,mutagenic call,"Test System: AMES SALMONELLA TYPHIMURIUM, Strain/Indicator: TA98, Metabolic Activation: HAMSTER, LIVER, S-9, AROCLOR 1254 (10%), Method: PREINCUBATION",inactive; negative
same,mutagenic call,"Test System: AMES SALMONELLA TYPHIMURIUM, Strain/Indicator: TA98, Metabolic Activation: MOUSE, LIVER, S-9, AROCLOR 1254, Method: PREINCUBATION",inactive; negative
same,mutagenic call,"Test System: AMES SALMONELLA TYPHIMURIUM, Strain/Indicator: TA98, Metabolic Activation: RAT, LIVER, S-9, AROCLOR 1254 (10%), Method: PREINCUBATION",inactive; negative
same,mutagenic call,"Test System: AMES SALMONELLA TYPHIMURIUM, Strain/Indicator: TA100, Metabolic Activation: HAMSTER, LIVER, S-9, AROCLOR 1254 (10%), Method: PREINCUBATION",inactive; negative
same,mutagenic call,"Test System: AMES SALMONELLA TYPHIMURIUM, Strain/Indicator: TA100, Metabolic Activation: MOUSE, LIVER, S-9, AROCLOR 1254, Method: PREINCUBATION",inactive; negative
same,mutagenic call,[1],inactive; negative
same,mutagenic call,"Test System: AMES SALMONELLA TYPHIMURIUM, Strain/Indicator: TA100, Metabolic Activation: RAT, LIVER, S-9, AROCLOR 1254 (10%), Method: PREINCUBATION",inactive; negative
same,mutagenic call,"Test System: AMES SALMONELLA TYPHIMURIUM, Strain/Indicator: TA1535, Metabolic Activation: HAMSTER, LIVER, S-9, AROCLOR 1254 (10%), Method: PREINCUBATION",inactive; negative
same,mutagenic call,[2],inactive; negative
same,mutagenic call,"Test System: AMES SALMONELLA TYPHIMURIUM, Strain/Indicator: TA1535, Metabolic Activation: RAT, LIVER, S-9, AROCLOR 1254 (10%), Method: PREINCUBATION",inactive; negative
same,mutagenic call,"Test System: AMES SALMONELLA TYPHIMURIUM, Strain/Indicator: TA1537, Metabolic Activation: HAMSTER, LIVER, S-9, AROCLOR 1254 (10%), Method: PREINCUBATION",inactive; negative
same,mutagenic call,[3],active; positive
same,mutagenic call,"Test System: AMES SALMONELLA TYPHIMURIUM, Strain/Indicator: TA1537, Metabolic Activation: RAT, LIVER, S-9, AROCLOR 1254 (10%), Method: PREINCUBATION",inactive; negative
same,mutagenic call,"Test System: E. COLI, Strain/Indicator: WP2, Metabolic Activation: MOUSE, LIVER, S-9, AROCLOR 1254, Method: PREINCUBATION",inactive; negative
same,mutagenic call,"Test System: E. COLI, Strain/Indicator: WP2, Metabolic Activation: NONE, Method: PREINCUBATION",inactive; negative
same,mutagenic call,"Test System: E. COLI, Strain/Indicator: WP2 UVRA, Metabolic Activation: MOUSE, LIVER, S-9, AROCLOR 1254, Method: PREINCUBATION",inactive; negative
same,mutagenic call,[4],inactive; negative
same,mutagenic call,[5],inactive; negative
same,mutagenic call,"Test System: MOUSE LYMPHOMA, Strain/Indicator: L5178Y (TK+/TK-), Metabolic Activation: RAT, LIVER, S-9, AROCLOR 1254, Method: SUSPENSION/PLATE",active; positive
O=S(=O)(O)OCc1cc2ccccc2c2ccc3ccccc3c12,mutagenic call,[6],active; positive
Oc1cc(O)cc(O)c1,mutagenic call,"Test System: AMES SALMONELLA TYPHIMURIUM, Strain/Indicator: TA97, Metabolic Activation: NONE, Method: PREINCUBATION",inactive; negative
same,mutagenic call,"Test System: AMES SALMONELLA TYPHIMURIUM, Strain/Indicator: TA97, Metabolic Activation: RAT, LIVER, S-9, PHENOBARBITAL, Method: PREINCUBATION",inactive; negative
same,mutagenic call,[7],inactive; negative
same,mutagenic call,[6],inactive; negative
same,mutagenic call,"Test System: AMES SALMONELLA TYPHIMURIUM, Strain/Indicator: TA98, Metabolic Activation: RAT, LIVER, S-9, PHENOBARBITAL, Method: PREINCUBATION",inactive; negative
same,mutagenic call,[8],inactive; negative
same,mutagenic call,[1],inactive; negative
same,mutagenic call,"Test System: AMES SALMONELLA TYPHIMURIUM, Strain/Indicator: TA100, Metabolic Activation: RAT, LIVER, S-9, PHENOBARBITAL, Method: PREINCUBATION",inactive; negative
CC1CN1P(=O)(N1CC1C)N1CC1C (stereo unspecified),mutagenic call,"Test System: AMES SALMONELLA TYPHIMURIUM, Strain/Indicator: G46, Metabolic Activation: HOST MEDIATED, Method: STANDARD PLATE",active; positive
Cc1[nH]c(=O)c(C#N)cc1-c1ccncc1,mutagenic call,"Test System: AMES SALMONELLA TYPHIMURIUM, Strain/Indicator: TA97, Metabolic Activation: NONE",inactive; negative
same,mutagenic call,"Test System: AMES SALMONELLA TYPHIMURIUM, Strain/Indicator: TA97, Metabolic Activation: S-9",inactive; negative
same,mutagenic call,[7],inactive; negative
same,mutagenic call,[6],inactive; negative
same,mutagenic call,"Test System: AMES SALMONELLA TYPHIMURIUM, Strain/Indicator: TA98, Metabolic Activation: RAT, LIVER, S-9, PHENOBARBITAL AND 5,6-BENZOFLAVONE, Method: PREINCUBATION",inactive; negative
same,mutagenic call,[8],inactive; negative
same,mutagenic call,[1],inactive; negative
same,mutagenic call,"Test System: AMES SALMONELLA TYPHIMURIUM, Strain/Indicator: TA100, Metabolic Activation: RAT, LIVER, S-9, PHENOBARBITAL AND 5,6-BENZOFLAVONE, Method: PREINCUBATION",inactive; negative
same,mutagenic call,"Test System: AMES SALMONELLA TYPHIMURIUM, Strain/Indicator: TA100, Metabolic Activation: S-9",inactive; negative
same,mutagenic call,"Test System: AMES SALMONELLA TYPHIMURIUM, Strain/Indicator: TA102, Metabolic Activation: NONE",inactive; negative
same,mutagenic call,"Test System: AMES SALMONELLA TYPHIMURIUM, Strain/Indicator: TA102, Metabolic Activation: S-9",inactive; negative
same,mutagenic call,[2],inactive; negative
same,mutagenic call,"Test System: AMES SALMONELLA TYPHIMURIUM, Strain/Indicator: TA1535, Metabolic Activation: RAT, LIVER, S-9, PHENOBARBITAL AND 5,6-BENZOFLAVONE, Method: PREINCUBATION",inactive; negative
same,mutagenic call,[3],inactive; negative
same,mutagenic call,"Test System: AMES SALMONELLA TYPHIMURIUM, Strain/Indicator: TA1537, Metabolic Activation: RAT, LIVER, S-9, PHENOBARBITAL AND 5,6-BENZOFLAVONE, Method: PREINCUBATION",inactive; negative
same,mutagenic call,[4],inactive; negative
same,mutagenic call,"Test System: E. COLI, Strain/Indicator: WP2 UVRA, Metabolic Activation: RAT, LIVER, S-9, PHENOBARBITAL AND 5,6-BENZOFLAVONE, Method: PREINCUBATION",inactive; negative
same,mutagenic call,[5],inactive; negative
same,mutagenic call,"Test System: MOUSE LYMPHOMA, Strain/Indicator: L5178Y (TK+/TK-), Metabolic Activation: RAT, LIVER, S-9, PHENOBARBITAL AND 5,6-BENZOFLAVONE, Method: SUSPENSION/PLATE",inactive; negative
Cc1ccc(Nc2ccc([N+](=O)[O-])cc2)cc1,mutagenic call,"Test System: AMES SALMONELLA TYPHIMURIUM, Strain/Indicator: TA98(NR), Metabolic Activation: NONE, Method: PREINCUBATION",inactive; negative
same,mutagenic call,[6],active; positive
same,mutagenic call,"Test System: AMES SALMONELLA TYPHIMURIUM, Strain/Indicator: TA98, Metabolic Activation: RAT, LIVER, S-9, AROCLOR 1254, Method: PREINCUBATION",active; positive
